Consider one compound from ChEMBL document CHEMBL5352440, “Promising antimalarials targeting apicoplast DNA polymerase from Plasmodium falciparum” (Eur J Med Chem, 2022).

pEC50: −log10 of the molar value. Calls of active or inactive are those of the source. The calls are words filed in the database; no cut-off is given here.

The test system of assay [1] is Plasmodium falciparum. Put plainly: Antiparasitic activity against Plasmodium falciparum NF54 with attB plasmid infected in red blood cells assessed as reduction in parasitemia incubated for 72 hrs. The format is functional, organism-based, Red blood cell. As to conditions: NF54, Erythrocyte.
For assay [2], the system named is Plasmodium falciparum. The experiment in a line: Inhibition of plasmodium falciparum apicoplast DNA polymerase exonuclease activity using blunt-ended double stranded oligonucleotide with 2-aminopurine at position 1 on 3' end as substrate assessed as reduction in exonuclease proofreading activity at 3'-5' direction at 100 uM relative to control.
The subject of assay [3] is Plasmodium falciparum. Put plainly: Non-competitive inhibition of Plasmodium falciparum apicoplast DNA polymerase assessed as inhibition constant for lower affinity site in presence of various concentrations of dNTPs by molecular beacon assay.
Assay [4] deals with Plasmodium falciparum. Put plainly: Non-competitive inhibition of exonuclease deficient Plasmodium falciparum apicoplast DNA polymerase harboring wild type W512 residue assessed as inhibition constant for higher affinity site in presence of dNTPs.
The subject of assay [5] is Plasmodium falciparum. The experiment in a line: Inhibition of plasmodium falciparum apicoplast DNA polymerase exonuclease activity using blunt-ended double stranded oligonucleotide with 2-aminopurine at position 1 on 3' end as substrate assessed as exonuclease specific activity at 100 uM (reference value: 2.2 +/- 0.09%).
Assay [6] relates to Plasmodium falciparum. Put plainly: Non-competitive inhibition of Plasmodium falciparum apicoplast DNA polymerase assessed as inhibition constant for higher affinity site in presence of various concentrations of dNTPs by molecular beacon assay.
The target of assay [7] is T1, DNA-directed DNA polymerase (Enterobacteria phage T4) (UniProt P04415).
T1 sequence (whole entry): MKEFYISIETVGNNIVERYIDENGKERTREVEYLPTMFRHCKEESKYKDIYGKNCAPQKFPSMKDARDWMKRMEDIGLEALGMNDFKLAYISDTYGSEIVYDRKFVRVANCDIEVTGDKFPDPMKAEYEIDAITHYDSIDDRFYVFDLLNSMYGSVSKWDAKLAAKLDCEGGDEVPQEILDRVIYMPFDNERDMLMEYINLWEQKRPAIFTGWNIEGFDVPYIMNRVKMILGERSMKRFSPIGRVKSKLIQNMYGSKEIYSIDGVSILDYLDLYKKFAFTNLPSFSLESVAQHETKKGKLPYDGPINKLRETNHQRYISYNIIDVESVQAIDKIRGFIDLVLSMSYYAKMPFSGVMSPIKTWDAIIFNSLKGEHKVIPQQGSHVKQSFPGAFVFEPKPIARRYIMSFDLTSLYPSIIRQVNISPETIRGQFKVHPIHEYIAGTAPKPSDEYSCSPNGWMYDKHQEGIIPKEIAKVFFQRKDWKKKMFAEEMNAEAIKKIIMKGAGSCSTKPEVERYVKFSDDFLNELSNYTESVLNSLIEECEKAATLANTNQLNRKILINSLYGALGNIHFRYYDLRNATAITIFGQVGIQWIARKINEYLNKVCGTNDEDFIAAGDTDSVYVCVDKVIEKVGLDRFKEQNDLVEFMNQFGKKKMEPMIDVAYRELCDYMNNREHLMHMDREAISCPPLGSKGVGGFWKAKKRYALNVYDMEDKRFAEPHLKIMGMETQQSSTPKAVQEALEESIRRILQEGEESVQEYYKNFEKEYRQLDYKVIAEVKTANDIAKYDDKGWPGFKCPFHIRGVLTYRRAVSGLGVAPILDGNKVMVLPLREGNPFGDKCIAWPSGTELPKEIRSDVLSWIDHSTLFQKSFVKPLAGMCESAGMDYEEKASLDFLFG
Put plainly: Inhibition of Enterobacteria T4 phage DNA polymerase.

The test system of assay [8] is Plasmodium falciparum. The experiment in a line: Non-competitive inhibition of exonuclease deficient Plasmodium falciparum apicoplast DNA polymerase W512A mutant assessed as inhibition constant for higher affinity site in presence of dNTPs.
Assay [9] has as its system Plasmodium falciparum. The experiment in a line: Non-competitive inhibition of exonuclease deficient Plasmodium falciparum apicoplast DNA polymerase W512A mutant assessed as inhibition constant for lower affinity site in presence of dNTPs.
Assay [10] concerns the target DNA polymerase I (Escherichia coli) (UniProt P00582). Put plainly: Inhibition of Escherichia coli DNA polymerase I.
In assay [11] the test system is Plasmodium falciparum. The experiment in a line: Non-competitive inhibition of exonuclease deficient Plasmodium falciparum apicoplast DNA polymerase harboring wild type W512 residue assessed as inhibition constant for lower affinity site in presence of dNTPs.

Sequence of DNA polymerase I (Escherichia coli) (P00582 whole entry): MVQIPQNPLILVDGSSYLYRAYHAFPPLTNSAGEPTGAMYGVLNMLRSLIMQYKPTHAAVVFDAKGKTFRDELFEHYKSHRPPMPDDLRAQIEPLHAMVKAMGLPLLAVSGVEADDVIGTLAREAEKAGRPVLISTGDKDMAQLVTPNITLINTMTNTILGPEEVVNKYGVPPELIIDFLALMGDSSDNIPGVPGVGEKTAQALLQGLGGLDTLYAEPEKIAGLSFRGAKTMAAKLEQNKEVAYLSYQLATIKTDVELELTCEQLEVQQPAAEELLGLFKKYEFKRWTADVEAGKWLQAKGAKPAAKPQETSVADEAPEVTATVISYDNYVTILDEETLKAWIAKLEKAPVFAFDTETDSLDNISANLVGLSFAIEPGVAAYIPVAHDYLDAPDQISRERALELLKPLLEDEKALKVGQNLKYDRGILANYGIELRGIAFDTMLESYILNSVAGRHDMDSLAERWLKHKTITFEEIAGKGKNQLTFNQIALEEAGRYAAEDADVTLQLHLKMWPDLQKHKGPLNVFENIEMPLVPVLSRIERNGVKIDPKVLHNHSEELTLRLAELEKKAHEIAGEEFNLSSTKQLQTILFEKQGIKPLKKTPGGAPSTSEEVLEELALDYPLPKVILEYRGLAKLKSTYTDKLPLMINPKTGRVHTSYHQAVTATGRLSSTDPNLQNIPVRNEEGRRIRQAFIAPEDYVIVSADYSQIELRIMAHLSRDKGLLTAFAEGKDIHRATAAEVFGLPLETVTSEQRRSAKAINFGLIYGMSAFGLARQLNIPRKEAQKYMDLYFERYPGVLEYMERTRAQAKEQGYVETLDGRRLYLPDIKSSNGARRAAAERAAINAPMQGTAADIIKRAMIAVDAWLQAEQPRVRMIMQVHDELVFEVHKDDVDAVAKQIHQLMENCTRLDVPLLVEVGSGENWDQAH

As to `CC(C)(C)c1ccc(NC(=O)Nc2c3c(nn2-c2cccc(Cl)c2)CSC3)cc1`, the pEC50 (commonly the EC50 on a negative log10 scale, so that one unit is a factor of ten) in assay [1] is 5.89. In addition, in [2], the inhibition (usually the percentage by which the read-out fell short of the control) was below 50%. For the same compound, the KiL in assay [3] worked out at 12.2 µM; in assay [9] it was 6.8 µM; in [11], 12.2 µM. Moreover, the KiH in assay [4] was 2.73 µM; in assay [6], 2.73 µM; in assay [8], 4.65 µM. Further, the Activity in assay [5] came out at 2.6 U. Besides, the inhibition entry in [7] and in assay [10] was “inactive” each time.
